{"source": "patent US8426359B2", "about": "“Inhibitors of serine proteases, particularly HCV NS3-NS4A protease” (Vertex Pharmaceuticals Incorporated, priority 2003, dated 2013)", "key": {"[1]": {"target": "T1, HCV NS3-NS4A protease (Hepatitis C virus genotype 1a, UniProt P27958)", "T1 construct": "The buffer, KK4A, DTT, and tNS3 were combined", "T1 sequence (P27958 1027-1208)": "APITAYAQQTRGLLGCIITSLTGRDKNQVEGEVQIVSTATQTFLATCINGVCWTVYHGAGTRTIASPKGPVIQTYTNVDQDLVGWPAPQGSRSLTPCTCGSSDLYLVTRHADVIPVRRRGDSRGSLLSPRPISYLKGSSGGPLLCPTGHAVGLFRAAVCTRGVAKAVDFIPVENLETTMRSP", "assay": "HCV enzyme assay (HPLC microbore separation of 5AB substrate and products)", "assay_type": "biochemical", "protocol": "HCV Enzyme Assay Protocol\nHPLC Microbore Method for Separation of 5AB Substrate and Products\n• NH2-Glu-Asp-Val-Val-(alpha)Abu-Cys-Ser-Met-Ser-Tyr-COOH\nA stock solution of 20 mM 5AB (or concentration of your choice) was made in DMSO w/0.2M DTT. This was stored in aliquots at −20 C.\nBuffer: 50 mM HEPES, pH 7.8; 20% glycerol; 100 mM NaCl\nTotal assay volume was 100 μL\nThe buffer, KK4A, DTT, and tNS3 were combined; distributed 78 μL each into wells of 96 well plate. This was incubated at 30 C for ˜5-10 min.\n2.5 μL of appropriate concentration of test compound was dissolved in DMSO (DMSO only for control) and added to each well. This was incubated at room temperature for 15 min.\nIncubated for 20 min at 30 C.\nTerminated reaction by addition of 25 μL of 10% TFA\nTransferred 120 μL aliquots to HPLC vials\nSeparated SMSY product from substrate and KK4A by the following method:\nMicrobore Separation Method:\nInstrumentation: Agilent 1100\n• Degasser G1322A • Binary pump G1312A • Autosampler G1313A • Column thermostated chamber G1316A • Diode array detector G1315A Column: • Phenomenex Jupiter; 5 micron C18; 300 angstroms; 150×2 mm; P/O 00F-4053-B0 • Column thermostat: 40 C • Injection volume: 100 μL • Solvent A=HPLC grade water+0.1% TFA • Solvent B=HPLC grade acetonitrile+0.1% TFA\n• Stop time: 17 min • Post-run time: 10 min."}, "[2]": {"tested_on": "Cells containing hepatitis C virus (HCV) replicon", "assay": "HCV replicon cell assay", "assay_type": "cell-based", "protocol": "HCV Replicon Cell Assay Protocol:\nCells containing hepatitis C virus (HCV) replicon were maintained in DMEM containing 10% fetal bovine serum (FBS), 0.25 mg per ml of G418, with appropriate supplements (media A).\nOn day 1, replicon cell monolayer was treated with a trypsin: EDTA mixture, removed, and then media A was diluted into a final concentration of 100,000 cells per ml wit. 10,000 cells in 100 ul were plated into each well of a 96-well tissue culture plate, and cultured overnight in a tissue culture incubator at 37° C.\nOn day 2, compounds (in 100% DMSO) were serially diluted into DMEM containing 2% FBS, 0.5% DMSO, with appropriate supplements (media B). The final concentration of DMSO was maintained at 0.5% throughout the dilution series.\nMedia on the replicon cell monolayer was removed, and then media B containing various concentrations of compounds was added. Media B without any compound was added to other wells as no compound controls.\nCells were incubated with compound or 0.5% DMSO in media B for 48 hours in a tissue culture incubator at 37° C. At the end of the 48-hour incubation, the media was removed, and the replicon cell monolayer was washed once with PBS and stored at −80° C. prior to RNA extraction.\nCulture plates with treated replicon cell monolayers were thawed, and a fixed amount of another RNA virus, such as Bovine Viral Diarrhea Virus (BVDV) was added to cells in each well. RNA extraction reagents (such as reagents from RNeasy kits) were added to the cells immediately to avoid degradation of RNA. Total RNA was extracted according the instruction of manufacturer with modification to improve extraction efficiency and consistency. Finally, total cellular RNA, including HCV replicon RNA, was eluted and stored at −80° C. until further processing.\nA Taqman real-time RT-PCR quantification assay was set up with two sets of specific primers and probe. One was for HCV and the other was for BVDV. Total RNA extractants from treated HCV replicon cells was added to the PCR reactions for quantification of both HCV and BVDV RNA in the same PCR well. Experimental failure was flagged and rejected based on the level of BVDV RNA in each well. The level of HCV RNA in each well was calculated according to a standard curve run in the same PCR plate. The percentage of inhibition or decrease of HCV RNA level due to compound treatment was calculated using the DMSO or no compound control as 0% of inhibition. The IC50 (concentration at which 50% inhibition of HCV RNA level is observed) was calculated from the titration curve of any given compound."}, "[3]": {"settings": "50% inhibition of HCV RNA level, 48-hour incubation, Taqman real-time RT-PCR, read-out: IC50"}}, "note": "Like-named read-outs stand apart in the source and are kept apart here.", "data": [{"smiles": "CCC[C@H](NC(=O)[C@@H]1C[C@@H](Oc2ccc(Cl)cn2)CN1C(=O)[C@@H](NC(=O)[C@@H](NC(=O)C(=O)NCC(C)C)C1CCCCC1)C(C)(C)C)C(=O)C(=O)NC1CC1", "note": "[Compound 12]", "values": [{"measurement": "Ki", "setting": "[1]", "result": "100 to 250", "unit": "nM"}, {"measurement": "IC50", "setting": "[2]; [3]", "result": "< 100", "unit": "nM"}]}, {"smiles": "CCC[C@H](NC(=O)[C@@H]1CC2CCCCC2N1C(=O)[C@@H](NC(=O)[C@@H](NC(=O)C(=O)Nc1ccccc1)C1CCCCC1)C(C)(C)C)C(=O)C(=O)NC1CC1", "note": "(stereo partly drawn) [Compound 1]", "values": [{"measurement": "Ki", "setting": "[1]; 25 nM tNS3, 25 μM KK4A, 25 μM 5AB substrate, 20 min at 30 C, read-out: Ki", "result": "100 to 250", "unit": "nM"}, {"measurement": "IC50", "setting": "[2]; 48 h", "result": "250 to 1000", "unit": "nM"}]}, {"smiles": "CCC[C@H](NC(=O)[C@@H]1C[C@@H](Oc2ccc(Cl)cn2)CN1C(=O)[C@@H](NC(=O)[C@@H](NC(=O)C(=O)NCc1ccccc1)C1CCCCC1)C(C)(C)C)C(=O)C(=O)NC1CC1", "note": "[Compound 11]", "values": [{"measurement": "Ki", "setting": "[1]", "result": "100 to 250", "unit": "nM"}, {"measurement": "IC50", "setting": "[2]; [3]", "result": "< 100", "unit": "nM"}]}, {"smiles": "CCC[C@H](NC(=O)[C@@H]1C[C@@H]2CCCC[C@@H]2N1C(=O)[C@@H](NC(=O)[C@@H](NC(=O)C(=O)NCC1CCCCC1)C1CCCCC1)C(C)(C)C)C(=O)C(=O)NC1CC1", "note": "[Compound 3]", "values": [{"measurement": "Ki", "setting": "[1]", "result": "100 to 250", "unit": "nM"}, {"measurement": "IC50", "setting": "[2]; [3]", "result": "250 to 1000", "unit": "nM"}]}, {"smiles": "CCC[C@H](NC(=O)C1C[C@@H](Oc2ccc(Cl)cn2)CN1C(=O)[C@@H](NC(=O)[C@@H](NC(=O)C(=O)NC1CC1)C1CCCCC1)C(C)(C)C)C(=O)C(=O)NC1CC1", "note": "(stereo partly drawn) [Compound 10]", "values": [{"measurement": "Ki", "setting": "[1]", "result": "100 to 250", "unit": "nM"}, {"measurement": "IC50", "setting": "[2]; [3]", "result": "< 100", "unit": "nM"}]}, {"smiles": "CCC[C@H](NC(=O)[C@@H]1C[C@@H]2CCCC[C@@H]2N1C(=O)[C@@H](NC(=O)[C@@H](NC(=O)C(=O)NC1CCCC1)C1CCCCC1)C(C)(C)C)C(=O)C(=O)NC1CC1", "note": "[Compound 9]", "values": [{"measurement": "Ki", "setting": "[1]", "result": "250 to 1000", "unit": "nM"}, {"measurement": "IC50", "setting": "[2]; [3]", "result": "250 to 1000", "unit": "nM"}]}, {"smiles": "CCC[C@H](NC(=O)[C@@H]1C[C@@H]2CCCC[C@@H]2N1C(=O)[C@@H](NC(=O)[C@@H](NC(=O)C(=O)Nc1cc(C)on1)C1CCCCC1)C(C)(C)C)C(=O)C(=O)NC1CC1", "note": "[Compound 7]", "values": [{"measurement": "Ki", "setting": "[1]", "result": "100 to 250", "unit": "nM"}, {"measurement": "IC50", "setting": "[2]; [3]", "result": "250 to 1000", "unit": "nM"}]}, {"smiles": "CCC[C@H](NC(=O)[C@@H]1C[C@@H]2CCCC[C@@H]2N1C(=O)[C@@H](NC(=O)[C@@H](NC(=O)C(=O)NC(C)C)C1CCCCC1)C(C)(C)C)C(=O)C(=O)NC1CC1", "note": "[Compound 5]", "values": [{"measurement": "Ki", "setting": "[1]", "result": "100 to 250", "unit": "nM"}, {"measurement": "IC50", "setting": "[2]; [3]", "result": "250 to 1000", "unit": "nM"}]}, {"smiles": "CCC[C@H](NC(=O)[C@@H]1C[C@@H]2CCCC[C@@H]2N1C(=O)[C@@H](NC(=O)[C@@H](NC(=O)C(=O)NCC(C)C)C1CCCCC1)C(C)(C)C)C(=O)C(=O)NC1CC1", "note": "[Compound 6]", "values": [{"measurement": "Ki", "setting": "[1]", "result": "100 to 250", "unit": "nM"}, {"measurement": "IC50", "setting": "[2]; [3]", "result": "250 to 1000", "unit": "nM"}]}, {"smiles": "CCC[C@H](NC(=O)[C@@H]1C[C@@H]2CCCC[C@@H]2N1C(=O)[C@@H](NC(=O)[C@@H](NC(=O)C(=O)NC1CC1)C1CCCCC1)C(C)(C)C)C(=O)C(=O)NC1CC1", "note": "[Compound 4]", "values": [{"measurement": "Ki", "setting": "[1]", "result": "100 to 250", "unit": "nM"}, {"measurement": "IC50", "setting": "[2]; [3]", "result": "250 to 1000", "unit": "nM"}]}, {"smiles": "CCC[C@H](NC(=O)[C@@H]1C[C@@H]2CCCC[C@@H]2N1C(=O)[C@@H](NC(=O)[C@@H](NC(=O)C(=O)NCc1ccccc1)C1CCCCC1)C(C)(C)C)C(=O)C(=O)NC1CC1", "note": "[Compound 2]", "values": [{"measurement": "Ki", "setting": "[1]", "result": "100 to 250", "unit": "nM"}, {"measurement": "IC50", "setting": "[2]; [3]", "result": "250 to 1000", "unit": "nM"}]}, {"smiles": "CCC[C@H](NC(=O)[C@@H]1C[C@@H]2CCCC[C@@H]2N1C(=O)[C@@H](NC(=O)[C@@H](NC(=O)C(=O)NC1CCCCC1)C1CCCCC1)C(C)(C)C)C(=O)C(=O)NC1CC1", "note": "[Compound 8]", "values": [{"measurement": "Ki", "setting": "[1]", "result": "100 to 250", "unit": "nM"}, {"measurement": "IC50", "setting": "[2]; [3]", "result": "250 to 1000", "unit": "nM"}]}]}
